US11065253B2, “Arylquinazolines” (Merck Patent GmbH, priority 2013, dated 2021)
Read-outs that look alike come from different tables or passages of the source. Values belong to the molecule of their own block, whether it stands above or below them.

System: phospho-serine 2056 DNA-PK in HCT116 cells
Test: DNA-PK phosphorylation at serine 2056 (cellular), ELISA in bleomycin-treated HCT116 cells
Assay type: cell-based
Details: read-out: IC50 pDNA-PK
Summary of the method: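 Chemiluminescent ELISA read-out; phospho-specific signal normalised to total DNA-PKcs. Cells (HCT116) exposed 6 h to test compound plus 10 μM bleomycin to induce double-strand breaks; DMSO control served as blank.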

[1] = cellular DNA-PK phosphorylation at serine 2056, HCT116 cells
[2] = Homo sapiens, HCT-116, cellular DNA-PK phosphorylation at serine 2056, HCT116 cells
[3] = Homo sapiens, HCT-116, phospho-serine 2056 DNA-PK, bleomycin-treated HCT116 cells, class symbols A-D
[4] = cellular, HCT116 cells, 10 μM bleomycin, six hours
[5] = Homo sapiens, HCT-116, 6 h, cellular, HCT116 cells, 10 μM bleomycin, six hours
[6] = Homo sapiens, HCT-116, phospho-serine 2056 DNA-PK, bleomycin-treated HCT116 cells

IC50 [3]: 10 to 30 µM
Compound: Cn1cc(C(O)c2ccc(F)c(-c3ncnc4cc(N5CCOCC5)ccc34)c2)cn1 (centres unmarked) [Example 191, [4-Fluoro-3-(7-morpholin-4-yl-quinazolin-4-yl)-phenyl]-(1-methyl-1H-pyrazol-4-yl)-methanol]

IC50 [4]: 0.5 to 5 µM
Compound: OC(c1ccc2nccn2n1)c1cc(-c2ncnc3cc(N4CCOCC4)ccc23)c(F)cc1Cl (centres unmarked) [Example 63, [2-Chloro-4-fluoro-5-(7-morpholin-4-yl-quinazolin-4-yl)phenyl]-imidazo[1,2-b]pyridazin-6-ylmethanol]

IC50 [5]: < 0.5 µM
Compound: COc1cnc(C(O)c2ccc(F)c(-c3ncnc4cc(N5CCOCC5)ccc34)c2)c(Cl)c1 (centres unmarked) [Example 31, (3-Chloro-5-methoxy-pyridin-2-yl)-[4-fluoro-3-(7-morpholin-4-yl-quinazolin-4-yl)phenyl]-methanol]

IC50 [5]: 10 to 30 µM
Compound: O=c1[nH]ccnc1C(O)c1ccc(F)c(-c2ncnc3cc(N4CCOCC4)ccc23)c1 (centres unmarked) [Example 5, 3-{[4-Fluoro-3-(7-morpholin-4-yl-quinazolin-4-yl)phenyl]-hydroxymethyl}-1H-pyrazin-2-one]

IC50 [5]: 0.5 to 5 µM
Compound: OC(c1ccc2nccn2n1)c1cc(-c2ncnc3cc(N4CCOCC4)ccc23)c(F)cc1Cl (centres unmarked) [Example 56, [2-Chloro-4-fluoro-5-(7-morpholin-4-yl-quinazolin-4-yl)phenyl]-imidazo[1,2-b]pyridazin-6-ylmethanol]

IC50 (phospho-serine 2056 DNA-PK, bleomycin-treated HCT116 cells, class symbols A-D): 0.5 to 5 µM
Compound: OC(c1cc(F)c(F)c(-c2ncnc3cc(N4CCOCC4)ccc23)c1)c1nccs1 (centres unmarked) [Example 179, [3,4-Difluoro-5-(7-morpholin-4-yl-quinazolin-4-yl)-phenyl]thiazol-2-yl-methanol]

IC50 [6]: 5 to 10 µM
Compound: COc1nccnc1C(C(N)=O)c1ccc(F)c(-c2ncnc3cc(N4CCOCC4)ccc23)c1 (centres unmarked) [Example 305, 2-[4-Fluoro-3-(7-morpholin-4-yl-quinazolin-4-yl)-phenyl]-2-(3-methoxy-pyrazin-2-yl)acetamide]

IC50 [2]: 0.5 to 5 µM
Compound: Cn1c(C(O)c2ccc(F)c(-c3ncnc4cc(N5CCOCC5)ccc34)c2)cccc1=O (centres unmarked) [Example 375, 6-{[4-Fluoro-3-(7-morpholin-4-yl-quinazolin-4-yl)-phenyl]hydroxy-methyl}-1-methyl-1H-pyridin-2-one (Ena 2)]

IC50 [6]: < 0.5 µM
Compound: Cc1nccnc1C(O)c1ccc(F)c(-c2ncnc3cc(N4CCOCC4)cnc23)c1 (centres unmarked) [Example 237, [4-Fluoro-3-(7-morpholin-4-yl-pyrido[3,2-d}-pyrimidin-4-yl)-phenyl]-(3-methyl-pyrazin-2-yl)-methanol]

IC50 [5]: 10 to 30 µM
Compound: OC(c1ccc(F)c(-c2ncnc3cc(N4CCOCC4)ccc23)c1)c1cnccn1 (centres unmarked) [Example 33, [4-Fluoro-3-(7-morpholin-4-yl-quinazolin-4-yl)phenyl]-pyrazin-2-ylmethanol]

IC50 [5]: 0.5 to 5 µM
Compound: OC(c1ccc(F)c(-c2ncnc3cc(N4CCOCC4)ccc23)c1)c1cccnn1 (centres unmarked) [Example 65, [4-Fluoro-3-(7-morpholin-4-yl-quinazolin-4-yl)phenyl]-pyridazin-3-ylmethanol]

IC50 [4]: < 0.5 µM
Compound: OC(c1ccc2nccn2n1)c1cc(-c2ncnc3cc(N4CCOCC4)ccc23)c(F)cc1Cl (centres unmarked) [Example 57, [2-Chloro-4-fluoro-5-(7-morpholin-4-yl-quinazolin-4-yl)phenyl]-imidazo[1,2-b]pyridazin-6-ylmethanol]

The remaining lines, values behind:

Compound: COc1cncnc1C(O)c1cc(-c2ncnc3cc(N4CCOCC4)ccc23)ccc1Cl (centres unmarked) [Example 409, [2-Chloro-5-(7-morpholin-4-yl-quinazolin-4-yl)-phenyl]-(5-methoxy-pyrimidin-4-yl)-methanol (Ena 1)]
IC50 [1]: 0.5 to 5 µM

Compound: OC(c1cn2ccsc2n1)c1cc(-c2ncnc3cc(N4CCOCC4)ccc23)c(F)cc1F (centres unmarked) [Example 474, [2,4-Difluoro-5-(7-morpholin-4-yl-quinazolin-4-yl)-phenyl]imidazo-[2,1-b]thiazol-6-yl-methanol]
IC50 [2]: 10 to 30 µM

Compound: COc1cncnc1C(O)c1cc(-c2ncnc3cc(N4CCOCC4)ccc23)ccc1Cl (centres unmarked) [Example 413, [2-Chloro-5-(7-morpholin-4-yl-quinazolin-4-yl)-phenyl]-(5-methoxy-pyrimidin-4-yl)-methanol]
IC50 [1]: 0.5 to 5 µM

Compound: Cn1nc(C(C(N)=O)c2cc(-c3ncnc4cc(N5CCOCC5)ccc34)c(F)cc2Cl)ccc1=O (centres unmarked) [Example 311, 2-[2-Chloro-4-fluoro-5-(7-morpholin-4-yl-quinazolin-4-yl)-phenyl]-2-(1-methyl-6-oxo-1,6-dihydro-pyridazin-3-yl)-acetamide]
IC50 [6]: 10 to 30 µM

Compound: C#CC(O)(c1ccc(OC)nn1)c1cc(-c2ncnc3cc(N4CCOCC4)ccc23)c(F)cc1Cl (centres unmarked) [Example 122, 1-[2-Chloro-4-fluoro-5-(7-morpholin-4-yl-quinazolin-4-yl)-phenyl]-1-(6-methoxy-pyridazin-3-yl)-prop-2-yn-1-ol]
IC50 [3]: 0.5 to 5 µM

Compound: COc1nccnc1C(C(N)=O)c1cc(-c2ncnc3cc(N4CCOCC4)ccc23)ccc1Cl (centres unmarked) [Example 304, 2-[2-Chloro-5-(7-morpholin-4-yl-quinazolin-4-yl)-phenyl]-2-(3-methoxy-pyrazin-2-yl)acetamide]
IC50 [6]: 5 to 10 µM

Compound: CSc1ccc(C(O)c2cc(-c3ncnc4cc(N5CCOCC5)ccc34)c(F)cc2Cl)nn1 (centres unmarked) [Example 108, [2-Chloro-4-fluoro-5-(7-morpholin-4-yl-quinazolin-4-yl)-phenyl]-(6-methyl-sulfanylpyridazin-3-yl)methanol]
IC50 [3]: < 0.5 µM

Compound: OC(c1cccc(-c2ncnc3cc(N4CCOCC4)sc23)c1)c1nccs1 (centres unmarked) [Example 182, [3-(6-Morpholin-4-ylthieno[3,2-d}-pyrimidin-4-yl)-phenyl]thiazol-2-yl-methanol]
IC50 [3]: 5 to 10 µM

Compound: COc1ccc(C(O)c2cc(-c3ncnc4cc(N5CCOCC5)cc(F)c34)c(F)cc2Cl)nn1 (centres unmarked) [Example 271, [2-Chloro-4-fluoro-5-(5-fluoro-7-morpholin-4-yl-quinazolin-4-yl)-phenyl]-(6-methoxy-pyridazin-3-yl)-methanol (Ena 1)]
IC50 (phospho-serine 2056 DNA-PK, bleomycin-treated HCT116 cells): < 0.5 µM

Compound: Cc1nccnc1C(C(N)=O)c1cc(-c2ncnc3cc(N4CCOCC4)ccc23)c(F)cc1Cl (centres unmarked) [Example 324, 2-[2-Chloro-4-fluoro-5-(7-morpholin-4-yl-quinazolin-4-yl)-phenyl]-2-(3-methyl-pyrazin-2-yl)-acetamide]
IC50 [6]: 0.5 to 5 µM

Compound: O=C(O)c1ccc(C(O)c2cc(-c3ncnc4cc(N5CCOCC5)ccc34)c(F)cc2Cl)nn1 (centres unmarked) [Example 55, 6-{[2-Chloro-4-fluoro-5-(7-morpholin-4-yl-quinazolin-4-yl)phenyl]-hydroxymethyl}-pyridazine-3-carboxylic acid]
IC50 [5]: 10 to 30 µM

Compound: Cn1c(C(O)c2cc(-c3ncnc4cc(N5CCOCC5)ccc34)c(F)cc2Cl)cccc1=O (centres unmarked) [Example 382, 6-{[2-Chloro-4-fluoro-5-(7-morpholin-4-yl-quinazolin-4-yl)-phenyl]hydroxy-methyl}-1-methyl-1H-pyridin-2-one (Ena 2)]
IC50 [2]: 0.5 to 5 µM

Compound: OC(c1cc(-c2ncnc3cc(N4CCOCC4)ccc23)ccc1Cl)c1ncnn2cccc12 (centres unmarked) [Example 362, [2-Chloro-5-(7-morpholin-4-yl-quinazolin-4-yl)-phenyl]pyrrolo[2,1-f]-[1,2,4]triazin-4-yl-methanol]
IC50 [6]: 0.5 to 5 µM

Compound: OC(c1cc(-c2ncnc3cc(N4CCOCC4)ccc23)ccc1Cl)c1ncnc2ccsc12 (centres unmarked) [Example 89, [2-Chloro-5-(7-morpholin-4-yl-quinazolin-4-yl)-phenyl]thieno[3,2-d}-pyrimidin-4-ylmethanol]
IC50 [5]: < 0.5 µM
